Here are results for 45 compounds from the RepoRT retention time repository.

SMILES strings stand for the structures.

The nature of the series: HILIC, Waters ACQUITY UPLC BEH Amide, 100 × 2.1 mm, 1.7 µm; A: water + 0.125% formic acid + 10 mM ammonium formate; B: 5% water + 95% acetonitrile + 0.125% formic acid + 10 mM ammonium formate; gradient (min/%B) 0/100 2/100 7.7/70 9.5/40 10.25/30 12.75/100 17/100. Particulars: stereoisomer not certain.
Regarding `COc1cc(C=O)ccc1O` [Vanillin], the LC retention time worked out at 1.15 min.

Regarding `CCCc1nc(C)c2c(=O)[nH]c(-c3cc(S(=O)(=O)N4CCN(CC)CC4)ccc3OCC)nn12` [Vardenafil], the LC retention time came out at 1.7 min.

Take `COc1ccc(C(CN(C)C)C2(O)CCCCC2)cc1` (stereo not given) [Venlafaxine]: the LC retention time is 2.44 min.

For the compound `CC(=O)OC1CC2CCC3C(CCC4(C)C3CC([N+]3(C)CCCCC3)C4OC(C)=O)C2(C)CC1N1CCCCC1` (stereo not given) [Vercuronium], the LC retention time came to 5.53 min.

For `OC1CCCCC1N1CCC(c2ccccc2)CC1` (stereo not given) [Vesamicol], the LC retention time worked out at 2.65 min.

Take `CCC1(O)CC2CN(CCc3c([nH]c4ccccc34)C(C(=O)OC)(c3cc4c(cc3OC)N(C=O)C3C(O)(C(=O)OC)C(OC(C)=O)C5(CC)C=CCN6CCC43C65)C2)C1` (stereo not given) [Vincristine]: the LC retention time was 3.7 min.

Regarding `CCC1(O)CC2CN(CCc3c([nH]c4ccccc34)C(C(=O)OC)(c3cc4c(cc3OC)N(C)C3C(O)(C(N)=O)C(O)C5(CC)C=CCN6CCC43C65)C2)C1` (stereo not given) [Vindesine], the LC retention time amounted to 5.76 min.

Turning to `CCC1=CC2CN(C1)Cc1c([nH]c3ccccc13)C(C(=O)OC)(c1cc3c(cc1OC)N(C)C1C(O)(C(=O)OC)C(OC(C)=O)C4(CC)C=CCN5CCC31C54)C2` (stereo not given) [Vinorelbine], the LC retention time came out at 4.76 min.

As to `C=COC(N)=O` [Vinyl Carbamate], the LC retention time was 1.34 min.

For `Cc1ccnc2c1NC(=O)c1cccnc1N2C1CC1` [Viramune], the LC retention time turned out to be 1.16 min.

For the compound `O=c1cc(-c2ccc(O)cc2)oc2c(C3OC(CO)C(O)C(O)C3O)c(O)cc(O)c12` (stereo not given) [Vitexin], the LC retention time was found to be 5.33 min.

Consider `CC(c1ncncc1F)C(O)(Cn1cncn1)c1ccc(F)cc1F` (stereo not given) [Voriconazole], for which the LC retention time was 1.02 min.

As for `CC(=O)CC(c1ccccc1)c1c(O)c2ccccc2oc1=O` (stereo not given) [Warfarin], the LC retention time was found to be 0.99 min.

Take `NC(Cn1ccc(=O)[nH]c1=O)C(=O)O` (stereo not given) [Willardiine]: the LC retention time amounted to 8.72 min.

As for `CN(CCO)CC(O)Cn1cnc2c1c(=O)n(C)c(=O)n2C` (stereo not given) [Xanthinol], the LC retention time is 6.01 min.

`O=c1[nH]c(=O)c2ncn(C3OC(CO)C(O)C3O)c2[nH]1` (stereo not given) [Xanthosine]: the LC retention time is 7.3 min.

Take `COc1c2occc2cc2ccc(=O)oc12` [Xanthotoxin]: the LC retention time is 1.04 min.

As to `COc1cc(N)c(Cl)cc1C(=O)NC1CN2CCC1CC2` (stereo not given) [Zacopride], the LC retention time turned out to be 4.66 min.

As for `COc1cc(C(=O)NS(=O)(=O)c2ccccc2C)ccc1Cc1cn(C)c2ccc(NC(=O)OC3CCCC3)cc12` [Zafirlukast], the LC retention time came to 1 min.

For the compound `CCN(C(C)=O)c1cccc(-c2ccnc3c(C#N)cnn23)c1` [Zaleplon], the LC retention time came to 1.02 min.

As for `COc1cc(-c2ccc(=O)[nH]n2)ccc1OC(F)F` [Zardaverine], the LC retention time was 1.19 min.

With `CC1CCCC(O)CCCCCc2cc(O)cc(O)c2C(=O)O1` (stereo not given) [Zeranol], the LC retention time was 1.11 min.

With `CC(c1cc2ccccc2s1)N(O)C(N)=O` (stereo not given) [Zileuton], the LC retention time came out at 1.23 min.

On to `CN(C)CCc1c[nH]c2ccc(CC3COC(=O)N3)cc12` (stereo not given) [Zolmitriptan], for which the LC retention time was determined as 4.8 min.

For `Cc1ccc(-c2nc3ccc(C)cn3c2CC(=O)N(C)C)cc1` [Zolpidem], the LC retention time is 1.62 min.

As for `N[C@H]1[C@@H](OP(=O)(O)O)O[C@H](CO)[C@H](O)[C@@H]1O` [alpha-Galactosamine-1-phosphate], the LC retention time is 7.06 min.

As for `CSCCC(=O)C(=O)O` [alpha-Keto-gamma-(methylthio)butyric acid], the LC retention time was 0.92 min.

For the compound `C=C1CCOC1=O` [alpha-Methylene-gamma-butyrolactone], the LC retention time came out at 1.05 min.

For `C[C@](N)(Cc1cnc[nH]1)C(=O)O` [alpha-Methylhistidine], the LC retention time was 8.68 min.

Consider `CC1=C2C3OC(=O)C(C)C3CCC2(C)C=CC1=O` (stereo not drawn) [alpha-Santonin], for which the LC retention time was 1.07 min.

As to `NCCC(=O)O` [beta-Alanine], the LC retention time worked out at 8.02 min.

In the case of `CC(C)(O)CC(=O)O` [beta-Hydroxyisovaleric acid], the LC retention time came out at 4.55 min.

With `CNC[C@H](N)C(=O)O` [beta-N-Methylaminoalanine], the LC retention time was 9.32 min.

As for `NCC(O)CCC(N)C(=O)O` (stereo not given) [delta-Hydroxylysine], the LC retention time is 9.77 min.

As for `NCCCC(=O)O` [gamma-Aminobutyric Acid], the LC retention time was 7.86 min.

`NC(CCC(=O)NC(CS)C(=O)O)C(=O)O` (stereo not given) [gamma-Glutamyl-cysteine]: the LC retention time amounted to 8.98 min.

On to `NC(=O)CCC(NC(=O)CCC(N)C(=O)O)C(=O)O` (stereo not given) [gamma-Glutamylglutamine], for which the LC retention time stood at 9.55 min.

Consider `CC(C)CC(NC(=O)CCC(N)C(=O)O)C(=O)O` (stereo not given) [gamma-Glutamylleucine], for which the LC retention time turned out to be 8.1 min.

As to `CSCCC(NC(=O)CCC(N)C(=O)O)C(=O)O` (stereo not given) [gamma-Glutamylmethionine], the LC retention time is 8.55 min.

Turning to `NC(CCC(=O)NC(Cc1ccc(O)cc1)C(=O)O)C(=O)O` (stereo not given) [gamma-Glutamyltyrosine], the LC retention time came to 8.52 min.

Take `CC(OP(=O)(O)O)C(N)C(=O)O` (stereo not given) [o-Phosphothreonine]: the LC retention time was found to be 9.74 min.

As for `CN(C)c1ccc(N=Nc2ccccc2)cc1` [p-(Dimethylamino)azobenzene [methyl yellow]], the LC retention time is 0.93 min.

On to `O=C(O)C=Cc1ccc(O)cc1` [p-Coumaric acid], for which the LC retention time came to 1.38 min.

With `CN1C(=O)C(O)CC1c1cccnc1` (stereo not drawn) [trans-3'-Hydroxycotinine], the LC retention time turned out to be 2.02 min.

On to `OCC1OC(Oc2cc(O)cc(C=Cc3ccc(O)cc3)c2)C(O)C(O)C1O` (stereo not drawn) [trans-Piceid], for which the LC retention time was 4.64 min.
